Results as given in patent EP4621028A1, “FLUORESCENCE RECOVERY IN NANOGRAPHENE” (Max-Planck-Gesellschaft zur Förderung der Wissenschaften …, priority 2024, dated 2025).

Tests used:
[1] = Absorption and fluorescence in toluene; assay type: physicochemical; settings: for molar extinction coefficient ε: at maximum absorption wavelength
Solubility in water = assay type: physicochemical; settings: room temperature
Method: In accordance with the present invention, the solubility and particularly the solubility of the compound having the general formula (1) or the general formula (2) in water at 23°C is measured as follows: 1 mg sample is weighed into an Erlenmeyer flask and is then mixed homogeneously with 4 ml of water with a spatula at 23°C. The remaining substance on the spatula is stripped off with a magnetic stirrer bar, which is then added to the Erlenmeyer flask. While stirring with a magnetic stirrer, water is added dropwise with a burette until the solution in the Erlenmeyer flask becomes clear at 23°C. After that, the solubility of compound in water is calculated by calculating the ratio of weighed compound divided by the volume of added water and then by recalculating this ratio to 1 I of water.

Compound | absorption spectrum and emission spectrum [1] | molar extinction coefficient ε ([1]; in toluene (10^-5 mol/L)) | also measured
N-hexyl fumaric acid imide group substituted 6,14-dimesityldibenzo[hi,st]ovalene [Example 9] | narrow absorption spectrum as well as a narrow emission spectrum | – | –
COCCOCCOCCOCCOc1cc(-c2ccc3cc4cc5c(-c6c(C)cc(C)cc6C)cc6cc7c(-c8cc(OCCOCCOCCOCCOC)c(OCCOCCOCCOCCOC)c(OCCOCCOCCOCCOC)c8)ccc8cc9cc%10c(-c%11c(C)cc(C)cc%11C)cc%11cc2c3c2c%11c%10c3c9c(c87)c6c5c3c42)cc(OCCOCCOCCOCCOC)c1OCCOCCOCCOCCOC [Example 5, 3,11-bis(3,4,5-tris(2,5,8,11-tetraoxatridecan-13-yloxy)phenyl)-6,14-dimesityldibenzo[hi, st]ovalene] | – | – | solubility of this compound in water (Solubility in water): 100 µg/mL
CC(C)[Si](C#Cc1c2cccc3c4ccc5ccc6c(C#C[Si](C(C)C)(C(C)C)C(C)C)c7cccc8c9ccc%10ccc1c1c%10c9c9c(c78)c6c5c4c9c1c23)(C(C)C)C(C)C [Example 6, 6, 14-di(triisopropylsilylethynyl) dibenzo[hi,st]ovalene] | narrow absorption spectrum as well as a narrow emission spectrum | 61511 M⁻¹ cm⁻¹ | –
c1ccc(-c2c3cccc4c5ccc6ccc7c(-c8ccccc8)c8cccc9c%10ccc%11ccc2c2c%11c%10c%10c(c89)c7c6c5c%10c2c34)cc1 [Example 8, 6,14-diphenyldibenzo[hi,st]ovalene] | narrow absorption spectrum as well as a narrow emission spectrum | – | –
Cc1cccc(C)c1-c1c2cccc3c4ccc5ccc6c(-c7c(C)cccc7C)c7cccc8c9ccc%10ccc1c1c%10c9c9c(c78)c6c5c4c9c1c23 [Example 3, 6, 14-bis(dimethylphenyl)dibenzo[hi,st]ovalene] | narrow absorption spectrum as well as a narrow emission spectrum | 283000 M⁻¹ cm⁻¹ | –
CCCCCCCCCCCCOc1cc(-c2c3cccc4c5ccc6ccc7c(-c8cc(OCCCCCCCCCCCC)c(OCCCCCCCCCCCC)c(OCCCCCCCCCCCC)c8)c8cccc9c%10ccc%11ccc2c2c%11c%10c%10c(c89)c7c6c5c%10c2c34)cc(OCCCCCCCCCCCC)c1OCCCCCCCCCCCC [Example 7, 6,14-bis[3,4,5-tris(dodecoxyl)phenyl]dibenzo[hi,st]ovalene] | – | 385000 M⁻¹ cm⁻¹ | –
6,14-didodecyldibenzo[hi,st]ovalene [Example 2] | – | 203000 M⁻¹ cm⁻¹ | fluorescence quantum yield ([1]; in toluene (10^-5 mol/L)): 0.85; maximum absorption wavelength ([1]; in toluene (10^-5 mol/L)): 611 nm
